Results reported in US20040071707A1, “Modulation of cell growth” (priority 2000, published 2004).

Tested on: HUVEC
Assay: In vitro endothelial cell proliferation assay
Assay type: cell-based, Human
Conditions: for effect on anti-kringle 2 (7VPA) induced HUVEC proliferation: HUVEC stimulated with 700 nM (or 1400 nM) 7VPA, simultaneous addition
Protocol: Human umbilical vein endothelial cells (HUVEC) were purchased from Clonetics or isolated from umbilical vein cords by mild collagenase treatment as described and cultured in M199 with Earle's salts (Sigma) with 20% heat inactivated fetal bovine serum (Sigma), 100 IU/mL penicillin 100 μg/mL streptomycin (Gibco), 250 ng/mL fungizone (Gibco), 2 mM glutamine (Gibco), 5 IU/mL heparin (Sigma) and 50 μg/mL ECGS (Technoclone, Vienna, Austria). Human vascular smooth muscle cells (HVSMC) were isolated as described.
3×10^3 cells were plated in 96-well plates and allowed to attach overnight. Growth was arrested by incubation with 100 μL reduced growth medium (M199 with 2% FBS) for 24 h. Thereafter anti-tPA antibodies and other reagents were added to wells. K2P (Reteplase), anti-kringle 2 (7VPA) and anti-finger/EGF antibodies (3VPA and 6VPA) were a gift from Technoclone, Vienna, Austria. Anti-kringle 1 (PAM-2), anti-kringle 2 (ESP1) and anti-protease (374B and ESP2) antibodies were purchased from American Diagnostica, Alpha Labs, UK. D-mannitol and LY294002 were obtained from Sigma. VEGF121 and bFGF were purchased from R&D Systems Inc., UK. Recombinant single chain tPA (rsctPA) was obtained from Boehringher Ingelheim. The mutant alatPA was kindly provided by Prof. Roger Lijnen (Center for Molecular and Vascular Biology, Leuven, Belgium). Aprotinin was purchased from Boehringer Mannheim. The tPA peptides (tPA I and tPA II) corresponding to residues 7-17 and 15-26 respectively were synthesized by the Clinical Sciences Centre peptide synthesis facility at Hammersmith and the ICRF peptide unit. Rp-cAMPS and Lavendustin A were obtained from Calbiochem, UK. After 4 days of incubation cell number was quantified colorimetrically by the addition of 20 μL CellTiter 96 AQueous One Solution Cell Proliferation Assay (Promega) at 492 nm and 620 nm reference filter. Background absorbance was determined with substrate alone and subtracted from all wells.
HUVEC were plated at 1×10^5 cells in 12 well plates overnight. Medium was replaced with reduced growth medium overnight followed by addition of anti-K2 antibody. Control wells contained M199 and 2% FBS alone. After 3 days incubation cells were counted in a hemocytometer.

Compound	effect on anti-kringle 2 (7VPA) induced HUVEC proliferation (4 days)	also measured
angiostatin [reference compound]		concentration giving 50% inhibition (HUVEC growth, bFGF 10 ng/mL (FIG. 4B)): 45 µg/mL
OC[C@@H](O)[C@@H](O)[C@H](O)[C@H](O)CO [mannitol, D-mannitol, reference compound]		effect on basal HUVEC/EC growth (substance alone) (M199 with 2% FBS, 4 days, colorimetric): No effect
O=C(O)c1cc(N(Cc2ccccc2O)Cc2cc(O)ccc2O)ccc1O [Lavendustin A, reference compound]	could inhibit	
Nc1ncnc2c1ncn2[C@@H]1O[C@@H]2CO[P@@](O)(=S)O[C@H]2[C@H]1O [Rp-cAMPS, reference compound]	could inhibit	
aprotinin [reference compound]	could not block	
